Assay results from US20030144335A1, “Preventive or remedial agent for allergic disease and medical water-based liquid preparation, eye drop, and nasal drop” (priority 2001, published 2003).

Tested on: experimental allergic conjunctivitis model
Assay: Experimental allergic conjunctivitis model (dye leakage in palpebral conjunctiva of passively sensitized guinea pigs)
Format: in vivo, guinea pig
Details: at each concentration (0.01%, 0.1%, 1%); dose relationship confirmed
Procedure: In the test, Hartley male guinea pigs (each group consisting of 8 guinea pigs) at age 6 weeks were used.
Antiserum made by the following method was used: According to the method of Levine et al (J.Immunol.,106,29-33(1971)), the guinea pigs were sensitized with 4 times-administration of physiological saline 1 ml containing 10 μg of ovalbumin (hereafter called “OA”) and 5 mg of aluminum hydroxide via the peritoneal cavity at intervals of 2 weeks. 1 week after the final sensitization, blood was sampled from the hind leg, and left at room temperature for 30 minutes. The blood was then left at 4° C. for 4-5 hours, and serum was then collected by centrifugation at 1680×9.8 m/s^2 g for 15 minutes. The serum obtained was frozen and stored at −80° C.
20 μl/site of Anti OA guinea pig serum (64 antibody titer in PCA (passive cutaneous anaphylaxis reaction)) was diluted with an equal amount of physiological saline. 20 μl/site of the solution was injected intradermally in binocular palpebral conjunctiva of the guinea pig under ether anesthesia. Thus, passive sensitization was carried out. […]
Then, 8 ml of 0.6 mol/ml of liquid mixture of phosphoric acid and acetone(5 to 13) was added and shaken; thereafter, the mixture was stirred using a homogenizer, and centrifuged at 1680×9.8/s^2 for 15 minutes. The leakage pigment quantity was colorimetered at 620 nm using a spectrophotometer. […]

## CCS(=O)(=O)CCn1c([N+](=O)[O-])cnc1C [tinidazole, 1-(2-ethylsulfonyl)ethyl-2-methyl-5-nitro-1H-imidazole]
  inhibitory effect on dye leakage (allergic conjunctivitis): significant inhibitory effect
